According to patent US12663426B2, “Method and composition for measurement of nitric oxide” (The University of Chicago, priority 2019, dated 2026):

Legend:
NOS3 = biological target: T1, NOS3 (Homo sapiens, UniProt P29474); assay: Steady state NOS3 activity imaging at plasma membrane and TGN with NOckout probes; format: cell-based; settings: T-47D cells
T1 construct: endogenous, basal NOS3 activity was estimated at each of these sub-cellular locations in T-47D cells; endogenous in cells; host or cells: T-47D cells
Experimental: Image acquisition. T-47D cells were maintained as mentioned above in the cell culture section. Cells were washed twice with Hank's balanced salt solution (HBSS) before incubating them with 500 nM NOckout^TGN for 30 min or 500 nM NOckout^PM for 10 min at 37° C. followed by 3 washes with HBSS solution to remove any unloaded sensors. For steady state imaging (FIG. 1), cells were treated with indicated agonists or antagonists for 1 hr in complete RPMI-1640 medium. Care was taken not to exceed the final concentration of DMSO>1% at any time of the experiment. Additionally, 1% DMSO was used as a negative control in untreated (Basal) cells. […] The cells are then washed and imaged (FIG. 1f).
For simultaneous imaging cells were treated with 500 nM NOckout^TGN for 30 min where last 10 min cells were co-incubated with 500 nM NOckout^PM. In order to achieve lowest signal (PTIO, FIG. 1e-f) or to achieve bleaching profile (PTIO, FIG. 3e) cells were pre-treated with 500 μM PTIO for 15 minutes. Images were captured on a Laser scanning confocal Leica SP8 microscope using 63×, 1.4UV NA objective. Desired excitation and emission wavelengths was achieved using white light laser along with notch filters and acousto-optical tunable filters. A488, DAR and A647 were imaged using the following settings—Alexa488 (λex=488 nm, λem=500 nm to 540 nm), DAR (λex=554 nm, λem=565 nm to 610 nm) and Alexa647 (λex=647 nm, λem=665 nm to 710 nm).
Image analysis was performed using Fiji (Schindelin, J. et al. Fiji: an open-source platform for biological-image analysis. Nat Methods 9, 676-682 (2012)). Auto-fluorescence was subtracted from images for ratiometric analysis. For representation, images were further processed by smooth and despeckle functions. In order to present G/B or G/R images, a mask for each image was constructed using Otsu thresholding method, and mask-multiplied images were used for division. The ROI plugin in Fiji was used to select either TGN (Alexa647 channel) or PM (Alexa488 channel) and these ROIs were recalled in DAR channel to measure intensity in all three channels.
Next, endogenous, basal NOS3 activity was estimated at each of these sub-cellular locations in T-47D cells without explicitly activating NOS3. To do this, the ratiometric NOckout^PM response, i.e. the G/B ratio, was first measured under conditions where cells were depleted of NO using the NO scavenger 2-phenyl-4,4,5,5-tetramethylimidazoline-1-oxyl 3-oxide (PTIO, 300 μM) (Goldstein, S., Russo, A. & Samuni, A. Reactions of PTIO and carboxy-PTIO with *NO, *NO2, and O2−*. J Biol. Chem. 278, 50949-50955 (2003)). […] These two extreme cases provide the minimum and maximum G/B signals afforded by NOckout^PM in the cell (FIG. 1e-f). The G/B values under any subsequent condition are normalized to the maximum G/B signal. […]

TLR-9 and TLR-21 = assay: Phagosomal NO in zebrafish microglia with NOckout^zCpG; format: in vivo
Description: Zebrafish brain was imaged in the optic tectum using an upright Zeiss LSM-710 confocal microscope equipped with water immersion objectives (20×, or 40×). Zebrafish larvae (3-4 dpf were mounted dorsally in a 1.5% low-melting point agar-bed on a confocal imaging dish (3.5 cm glass bottom). E3-containing 0.003% MS-222 was present in the imaging dish though out the imaging section. For NOckout injected samples, images were acquired simultaneously in GFP, DAR, and A647N channels using excitation wavelengths 488 nm, […] from Argon-ion (488 nm), Helium-Neon (543 nm & 632 nm) laser sources respectively. pHrodo was imaged using the same settings as that of DAR.
Image analysis: A MATLAB based program called Findosome was used to calculate the (G/R) values of individual endosomes from the acquired images. […] For each ROI, the program calculates fluorescence intensities both in the normalizing channel (A647, R) as well as in the DAR (G) channel. […] From the results, (G/R) value for individual endosomes can be calculated. Phagosomal (G/R) values from the zebrafish microglia are calculated using Fiji software. […] Fluorescence intensities in A647 and DAR channels were calculated. […] For (G/R) ratio quantification experiments, only those vesicles that are present in both green (G) and red (R) channels were considered. […]

T-47D cells = assay: Golgi fragmentation (Giantin/GM130 immunofluorescence); format: cell-based
Experimental: (§1) Immunofluorescence staining. Cells were cultured on a glass bottom 3.5 cm imaging dish to reach 60% confluency. […] Treated cells were then washed three times with 1× PBS (pH 7.4) and fixed using, 4% paraformaldehyde at room temperature (RT, 15 min). Subsequently, cells were permeabilized using 0.25% triton X-100 followed by blocking using 3% BSA in 1× PBS. Cells were then incubated with indicated primary antibodies—mouse monoclonal anti-eNOS antibody (SantaCruz Cat #sc-376751), Polyclonal Anti-S-nitrosocysteine antibody (Abeam Cat #ab94930 or Abeam Cat #ab50185), Rabbit polyclonal Anti-Giantin antibody (Abeam Cat #ab24586) or Mouse monoclonal Anti-GM130 antibody (BD Biosciences Cat #610822) in blocking buffer (3% BSA in 1× 4 PBS) for 1 hour at RT. Cells were then washed for 5 min with 1× PBS (3×). Respective secondary antibodies conjugated with either Alexafluor 488 or Alexafluor 647 were added to the cells and incubated for 1 hr at RT. Cells were washed again to remove excess secondary antibody using 1× PBS for 5 min (3×). Hoechst 33342 (5 μM) was added 10 min prior to imaging to stain nuclear DNA. Cells were then imaged on a Leica SP8 laser scanning confocal microscope using excitation wavelengths 405 nm (Hoechst), 488 nm (AlexaFluor 488) and 647 nm (AlexaFluor 647). Images were processed using Fiji and maximum z-projection of 2-3 z-planes are used in representative images.
Golgi fragmentation was quantified with immunofluorescence images of Golgi structural protein Giantin. Merge images of Hoechst and Giantin allowed identification of cell numbers and enumeration of Golgi fragments per cell (≤3 Golgi fragments per cell was considered intact Golgi) (Lee, J. E. et al. Dependence of Golgi apparatus integrity on nitric oxide in vascular cells: implications in pulmonary arterial hypertension. Am. J. Physiol. Heart Circ. Physiol. 300, H1141-58 (2011)). […]
Small molecule inhibitors were then screened to identify the molecular pathway by which NOS3 inhibition induces Golgi fragmentation. This is based on the rationale that inhibiting a protein on this pathway should also block methylene blue-induced Golgi fragmentation. […] A range of small molecule inhibitors against kinases that have previously ascribed roles in Golgi fragmentation were then used. DNA-PK with NU7441 was ruled out (Farber-Katz, S. E. et al. DNA damage triggers Golgi dispersal via DNA-PK and GOLPH3. Cell 156, 413-427 (2014)). Compounds containing an indirubin core have broad specificity for Cyclin dependent kinases (CDKs) and Src kinases. […] CDK1, CDK2 and CDK5 were ruled out, using (R)-Roscovitine (Rosco).

[1] = system: S-nitrosylation at the Golgi; assay: Anti-S-nitrosocysteine immunostaining of T-47D cells; format: cell-based
Experimental: as §1
In order to address the significance of the […] population of NOS3 at the TGN, T-47D cells were immunostained using an antibody specific to S-nitrosocysteine.
Similar observations were made in MCF-7 cells upon NO depletion (FIG. 23). These studies reveal that the Golgi is a cellular hot-spot for 5-nitrosylation of proteins by NOS3, where it is essential for the maintenance of Golgi architecture in breast cancer cells. […] In addition to Golgi fragmentation, NO scavenging also hampered cell growth by inducing cell sensescence (FIG. 24).

NOS2 = biological target: T2, NOS2 (Mus musculus, UniProt P29477); assay: In cellulo specificity of NOckout to NO in LPS primed J774A.1 cells; format: cell-based; settings: LPS primed J774A.1 cells, 1400 W 10 μM
T2 construct: J774A.1 cells were treated with 1 μg/mL LPS for 12 h prior to the addition of NOckout; endogenous in cells; host or cells: J774A.1 macrophages primed with LPS
Experimental: Pharmacological inhibition: Pharmacological inhibition of different enzymes were performed by employing known inhibitors. […] Cells were bathed in inhibitors 1 h prior to the addition of NOckout probes during the specificity experiment performed in J774A.1 cells.
In cellulo specificity of NOckout to NO: In cellulo specificity of the NOckout probe towards NO^− was validated in J774A.1 cells. […] J774A.1 cells were treated with 1 μg/mL LPS for 12 h prior to the addition of NOckout (500 nM in HBSS) either in the presence or in absence of specific inhibitors. LPS addition was employed to induce the expression of NOS2NOX and MPO. […] After 90 minutes of incubation with the NOckout culture media was removed from the cells and three washes were performed using HBSS to remove extracellular NOckout before proceeding to the fluorescence imaging. […]
The in-cell specificity of NOckout can be evaluated by measuring the contribution of the reactive species produced by NOX, MPO and NOS2 to the observed fold change in G/R ratio upon LPS stimulation. […] As NOS2 activity is not pan-endosomal, specificity is given by quantifying the percentage of endosomes that show G/R values higher than the mean G/R value in endosomes of unstimulated, NOS2 inhibited cells, as the latter corresponds to basal endosomal NO levels (FIG. 6c).

SMILES: CC(=N)NCc1cccc(CN)c1 [1400 W]
- G/B and G/R values of NOckout probes (NOS3 activity) (NOS3): no effect
- reduction of phagosomal G/R versus NOckout^zCpG (TLR-9 and TLR-21): ~50%
- Golgi fragmentation by treatment alone (T-47D cells): none of these treatments fragmented the Golgi
- S-nitrosylation at the Golgi [1]: no change
- reduction of NOckout signal (NOS2): ~50%
